Molecular target: T1, hEP3A/Gqi5 (Homo sapiens, UniProt P43115)
T1 construct: expressed in transfected cells
T1 sequence (P43115 1-390): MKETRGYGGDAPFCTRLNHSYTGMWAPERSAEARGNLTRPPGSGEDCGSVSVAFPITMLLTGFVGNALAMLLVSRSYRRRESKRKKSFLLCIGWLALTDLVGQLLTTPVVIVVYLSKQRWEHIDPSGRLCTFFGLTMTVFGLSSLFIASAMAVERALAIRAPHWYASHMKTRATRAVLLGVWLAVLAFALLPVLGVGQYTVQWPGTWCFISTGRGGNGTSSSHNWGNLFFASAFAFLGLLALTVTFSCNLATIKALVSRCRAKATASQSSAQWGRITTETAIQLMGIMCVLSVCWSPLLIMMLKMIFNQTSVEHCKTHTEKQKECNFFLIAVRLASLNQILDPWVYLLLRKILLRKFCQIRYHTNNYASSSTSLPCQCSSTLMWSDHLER
Test: FLIPR calcium signal, EP3
Type: cell-based
Conditions: HEK-293(EBNA); for EC50: read-out: Ca2+ Signal-EC50 (nM) EP3
Experimental: HEK-293(EBNA) cells, stably expressing one type or subtype of recombinant human prostaglandin receptors (prostaglandin receptors expressed: hDP/Gqs5; hEP1; hEP2/Gqs5; hEP3A/Gqi5; hEP4/Gqs5; hFP; hIP; hTP), were cultured in 100 mm culture dishes in high-glucose DMEM medium containing 10% fetal bovine serum, 2 mM 1-glutamine, 250 μg/ml geneticin (G418) and 200 μg/ml hygromycin B as selection markers, and 100 units/ml penicillin G, 100 μg/ml streptomycin and 0.25 μg/ml amphotericin B.
Cells were seeded at a density of 5×10^4 cells per well in Biocoat® Poly-D-lysine-coated black-wall, clear-bottom 96-well plates (Becton-Dickinson) and allowed to attach overnight in an incubator at 37° C. Cells were then washed two times with HBSS-HEPES buffer (Hanks Balanced Salt Solution without bicarbonate and phenol red, 20 mM HEPES, pH 7.4) using a Denley Cellwash plate washer (Labsystems). After 45 minutes of dye-loading in the dark, using the calcium-sensitive dye Fluo-4 AM at a final concentration of 2 μM, plates were washed four times with HBSS-HEPES buffer to remove excess dye leaving 100 μl in each well. Plates were re-equilibrated to 37° C. for a few minutes.
Cells were excited with an Argon laser at 488 nm, and emission was measured through a 510-570 nm bandwidth emission filter (FLIPR™, Molecular Devices, Sunnyvale, Calif.). Drug solution was added in a 50 μl volume to each well to give the desired final concentration. The peak increase in fluorescence intensity was recorded for each well. On each plate, four wells each served as negative (HBSS-HEPES buffer) and positive controls (standard agonists: BW245C (hDP); PGE2 (HEP1; hEP2/Gqs5; hEP3A/Gqi5; hEP4/Gqs5); PGF2α (hFP); carbacyclin (hIP); U-46619 (hTP), depending on receptor). The peak fluorescence change in each drug-containing well was then expressed relative to the controls.
Compounds were tested in a high-throughput (HTS) or concentration-response (CoRe) format. In the HTS format, forty-four compounds per plate were examined in duplicates at a concentration of 10^−5 M. To generate concentration-response curves, four compounds per plate were tested in duplicates in a concentration range between 10^−5 and 10^−11 M. The duplicate values were averaged. In either, HTS or CoRe format each compound was tested on at least 3 separate plates using cells from different passages to give an n≧3.

Structure (SMILES) | EC50 [nM] | Ca2+ Signal-EC50 (nM) EP3
O=C(O)CCC/C=C\C[C@@H]1[C@@H](c2ccc(C(O)CCC3CCCCC3)cc2)[C@H](O)C[C@H]1Cl (stereo partly drawn) [Entry 15, (Z)-7-{(1R,2S,3R,5R)-5-Chloro-2-[4-(3-cyclohexyl-1-hydroxy-propyl)-phenyl]-3-hydroxy-cyclopentyl}-hept-5-enoic acid] | 2220 | 
CCCCC(O)C(C)(C)c1ccc([C@@H]2[C@@H](C/C=C\CCCC(=O)O)[C@H](Cl)C[C@H]2O)cc1 (mixture of isomers) [Entry 32, (Z)-7-{(1R,2S,3R,5R)-5-Chloro-3-hydroxy-2-[4-(2-hydroxy-1,1-dimethyl-hexyl)-phenyl]-cyclopentyl}-hept-5-enoic acid] | 2810 | 
CCCCCC(O)c1ccc([C@@H]2[C@@H](CCCCCCC(=O)O)[C@H](Cl)C[C@H]2O)cc1 (stereo partly drawn) [Entry 14, 7-{(1R,2S,3R,5R)-5-Chloro-3-hydroxy-2-[4-(1-hydroxy-hexyl)-phenyl]-cyclopentyl}-heptanoic acid] | 477 | 
CCCCC(O)c1cccc([C@@H]2[C@@H](C/C=C\CCCC(=O)O)[C@H](Cl)C[C@H]2O)c1 (stereo partly drawn) [Entry 30, (Z)-7-{(1R,2S,3R,5R)-5-Chloro-3-hydroxy-2-[3-(1-hydroxy-pentyl)-phenyl]-cyclopentyl}-hept-5-enoic acid] | 23 | 
O=C(O)CCCCCC[C@@H]1[C@@H](c2ccc(C(O)CCC3CCCCC3)cc2)[C@H](O)C[C@H]1Cl (stereo partly drawn) [Entry 16, 7-{(1R,2S,3R,5R)-5-Chloro-2-[4-(3-cyclohexyl-1-hydroxy-propyl)-phenyl]-3-hydroxy-cyclopentyl}-heptanoic acid] | 1710 | 
CCCCCC(O)c1ccc([C@@H]2[C@@H](C/C=C\CCCC(=O)O)[C@H](Cl)C[C@H]2O)cc1 (single isomer, unassigned) [Entry 12] |  | not active
CCCCCC(O)c1cccc([C@@H]2[C@@H](C/C=C\CCCC(=O)O)[C@H](Cl)C[C@H]2O)c1 (stereo partly drawn) [Entry 29, (Z)-7-{(1R,2S,3R,5R)-5-Chloro-3-hydroxy-2-[3-(1-hydroxy-hexyl)-phenyl]-cyclopentyl}-hept-5-enoic acid] | 37 | 
O=C(O)CCC/C=C\C[C@@H]1[C@@H](c2ccc(C(O)CC3CCCCC3)cc2)[C@H](O)C[C@H]1Cl (mixture of isomers) [Entry 17, (Z)-7-{(1R,2S,3R,5R)-5-Chloro-2-[4-(2-cyclohexyl-1-hydroxy-ethyl)-phenyl]-3-hydroxy-cyclopentyl}-hept-5-enoic acid] |  | not active
CCCCCC(O)c1ccc([C@@H]2[C@@H](C/C=C\CCCC(=O)O)[C@@H](Cl)C[C@H]2O)cc1 (stereo partly drawn) [Entry 9, (Z)-7-{(1R,2S,3R,5S)-5-Chloro-3-hydroxy-2-[4-(1-hydroxy-hexyl)-phenyl]-cyclopentyl}-hept-5-enoic acid] | 7230 | 
O=C(O)CCCCCC[C@@H]1[C@@H](c2ccc(C(O)CC3CCCCC3)cc2)[C@H](O)C[C@H]1Cl (stereo partly drawn) [Entry 18, 7-{(1R,2S,3R,5R)-5-Chloro-2-[4-(2-cyclohexyl-1-hydroxy-ethyl)-phenyl]-3-hydroxy-cyclopentyl}-heptanoic acid] |  | not active
CCCCCC(O)c1ccc([C@@H]2[C@@H](C/C=C\CCCC(=O)O)[C@H](F)C[C@H]2O)cc1 (mixture of isomers) [Entry 8, (Z)-7-{(1R,2S,3R,5R)-5-Fluoro-3-hydroxy-2-[4-(1-hydroxy-hexyl)-phenyl]-cyclopentyl}-hept-5-enoic acid] | 1450 | 
CCCCCC(O)c1ccc([C@@H]2[C@@H](C/C=C\CCCC(=O)O)[C@H](Cl)C[C@@H]2O)cc1 (stereo partly drawn) [Entry 34, (Z)-7-{(1R,2S,3S,5R)-5-Chloro-3-hydroxy-2-[4-(1-hydroxy-hexyl)-phenyl]-cyclopentyl}-hept-5-enoic acid] | 25 | 
O=C(O)CCCCCC[C@@H]1[C@@H](c2ccc(C(O)Cc3ccccc3)cc2)[C@H](O)C[C@H]1Cl (stereo partly drawn) [Entry 22, 7-{(1 R,2S,3R,5R)-5-Chloro-3-hydroxy-2-[4-(1-hydroxy-2-phenyl-ethyl)-phenyl]-cyclopentyl}-heptanoic acid] |  | not active
CCCCCC(O)c1ccc([C@@H]2[C@@H](Cc3cccc(CCC(=O)O)c3)[C@H](Cl)C[C@H]2O)cc1 (stereo partly drawn) [Entry 3, 3-(3-{(1R,2S,3R,5R)-5-Chloro-3-hydroxy-2-[4-(1-hydroxy-hexyl)-phenyl]-cyclopentylmethyl}-phenyl)-propionic acid] | 4670 | 
O=C(O)CCCCCC[C@@H]1[C@@H](c2ccc(C(O)CCc3ccccc3)cc2)[C@H](O)C[C@H]1Cl (stereo partly drawn) [Entry 24, 7-{(1R,2S,3R,5R)-5-Chloro-3-hydroxy-2-[4-(1-hydroxy-3-phenyl-propyl)-phenyl]-cyclopentyl}-heptanoic acid] | 8830 | 
CC(C)(C)CCCC(O)c1ccc([C@@H]2[C@@H](CCCCCCC(=O)O)[C@H](Cl)C[C@H]2O)cc1 (mixture of isomers) [Entry 20, 7-{(1R,2S,3R,5R)-5-Chloro-3-hydroxy-2-[4-(1-hydroxy-5,5-dimethyl-hexyl)-phenyl]-cyclopentyl}-heptanoic acid] | 4450 | 
CCCCCC(O)C(C)(C)c1ccc([C@@H]2[C@@H](C/C=C\CCCC(=O)O)[C@H](Cl)C[C@H]2O)cc1 (stereo partly drawn) [Entry 31, (Z)-7-{(1R,2S,3R,5R)-5-Chloro-3-hydroxy-2-[4-(2-hydroxy-1,1-dimethyl-heptyl)-phenyl]-cyclopentyl}-hept-5-enoic acid] | 1300 | 
O=C(O)CCC/C=C\C[C@@H]1[C@@H](c2ccc(C(O)Cc3ccccc3)cc2)[C@H](O)C[C@H]1Cl (mixture of isomers) [Entry 21, (Z)-7-{(1R,2S,3R,5R)-5-Chloro-3-hydroxy-2-[4-(1-hydroxy-2-phenyl-ethyl)-phenyl]-cyclopentyl}-hept-5-enoic acid] |  | not active
CCCCC(O)c1ccc([C@@H]2[C@@H](C/C=C\CCCC(=O)O)[C@H](Cl)C[C@H]2O)cc1 (mixture of isomers) [Entry 27, (Z)-7-{(1R,2S,3R,5R)-5-Chloro-3-hydroxy-2-[4-(1-hydroxy-pentyl)-phenyl]-cyclopentyl}-hept-5-enoic acid] |  | not active
CCCCCC(O)c1ccc([C@@H]2[C@@H](C/C=C\CCCC(=O)O)[C@H](Cl)C[C@H]2O)cc1 (mixture of isomers) [Entry 11, (Z)-7-{(1R,2S,3R,5R)-5-Chloro-3-hydroxy-2-[4-(1-hydroxy-hexyl)-phenyl]-cyclopentyl}-hept-5-enoic acid] | 456 | 
O=C(O)CCC/C=C\C[C@@H]1[C@@H](c2ccc(C(O)c3ccccc3)cc2)[C@H](O)C[C@H]1Cl (stereo partly drawn) [Entry 28, (Z)-7-{(1R,2S,3R,5R)-5-Chloro-3-hydroxy-2-[4-(hydroxy-phenyl-methyl)-phenyl]-cyclopentyl}-hept-5-enoic acid] |  | not active
CCCC(O)c1ccc([C@@H]2[C@@H](C/C=C\CCCC(=O)O)[C@H](Cl)C[C@H]2O)cc1 (stereo partly drawn) [Entry 26, (Z)-7-{(1R,2S,3R,5R)-5-Chloro-3-hydroxy-2-[4-(1-hydroxy-butyl)-phenyl]-cyclopentyl}-hept-5-enoic acid] |  | not active
CCCCCCc1ccc([C@@H]2[C@@H](C/C=C\CCCC(=O)O)[C@H](Cl)C[C@H]2O)cc1 [Entry 33, (Z)-7-[(1R,2S,3R,5R)-5-Chloro-2-(4-hexyl-phenyl)-3-hydroxy-cyclopentyl]-hept-5-enoic acid] |  | not active
